{
  "source": "patent US20190262330A1",
  "about": "“Method of Treating Hepatocellular Carcinoma Using N-(4-(6,7-dimethoxyquinolin-4-yloxy)phenyl)-N′-(4-fluorophenyl)cyclopropane-1,1-dicarboxamide, (2S)-hydroxybutanedioate” (Exelixis, Inc., priority 2017, published 2019)",
  "key": {"[1]": {"system": "patients with advanced renal cell carcinoma", "assay": "CABOSUN trial, safety", "type": "in vivo, human"}, "[2]": {"system": "advanced RCC without prior therapy", "assay": "CABOSUN trial, efficacy", "type": "in vivo, human", "settings": "ITT", "excerpt": "All patients were required to have intermediate or poor risk disease as defined by the International Metastatic RCC Database Consortium (IMDC) risk group categories. Patients were stratified by IMDC risk group and presence of bone metastases (yes/no).\nThe major efficacy outcome measure was progression-free survival (PFS) by a retrospective blinded independent radiology review committee (BIRC)."}, "[3]": {"system": "patients who have not received prior systemic therapy", "settings": "in vivo; cited from earlier work"}, "[4]": {"system": "patients with advanced renal cell carcinoma", "assay": "METEOR trial, safety", "type": "in vivo, human", "excerpt": "Patients on both arms who had disease progression could continue treatment at the discretion of the investigator [see Clinical Studies (14)]."}, "[5]": {"system": "advanced RCC after prior anti-angiogenic therapy", "assay": "METEOR trial, efficacy", "type": "in vivo, human", "excerpt": "Patients were stratified by the number of prior VEGFR tyrosine kinase inhibitors (TKIs) and Memorial Sloan Kettering Cancer Center (MSKCC) Risk Group. […] The majority of the patients were male (75%), with a median age of 62 years. Sixty-nine percent (69%) received only one prior anti-angiogenic therapy. […] The main efficacy outcome measure was progression-free survival (PFS) assessed by a blinded independent radiology review committee among the first 375 subjects randomized. Other efficacy endpoints were objective response rate (ORR) and overall survival (OS) in the Intent-to-Treat (ITT) population. Tumor assessments were conducted every 8 weeks for the first 12 months, then every 12 weeks thereafter. Patients received treatment until disease progression or experiencing unacceptable toxicity. Patients on both arms who had disease progression could continue treatment at the discretion of the investigator."}, "[6]": {"assay": "Solubility in aqueous media", "type": "physicochemical"}, "[7]": {"system": "sorafenib-tolerant patients with hepatocellular carcinoma", "settings": "in vivo; cited from earlier work"}},
  "data": [
    {"smiles": "CCN(CC)CCNC(=O)c1c(C)[nH]c(/C=C2\\C(=O)Nc3ccc(F)cc32)c1C", "note": "[Sunitinib, sunitinib]", "values": [
      {"measurement": "Deaths within 30 days of treatment", "setting": "[1]; CABOSUN", "result": 6, "unit": "deaths"},
      {"measurement": "ALT increased, Grade 3-4", "setting": "[1]; human, in vivo", "result": 0, "unit": "%"},
      {"measurement": "AST increased, Grade 3-4", "setting": "[1]; human, in vivo", "result": 3, "unit": "%"},
      {"measurement": "Anemia, Grade 3-4", "setting": "[1]; human, in vivo", "result": 3, "unit": "%"},
      {"measurement": "Angiopathy, Grade 3-4", "setting": "[1]; human, in vivo", "result": 1, "unit": "%"},
      {"measurement": "Arthralgia, Grade 3-4", "setting": "[1]; human, in vivo", "result": 0, "unit": "%"},
      {"measurement": "Back pain, Grade 3-4", "setting": "[1]; human, in vivo", "result": 0, "unit": "%"},
      {"measurement": "Blood creatinine increased, Grade 3-4", "setting": "[1]; human, in vivo", "result": 3, "unit": "%"},
      {"measurement": "Bone pain, Grade 3-4", "setting": "[1]; human, in vivo", "result": 1, "unit": "%"},
      {"measurement": "Confusional state, Grade 3-4", "setting": "[1]; human, in vivo", "result": 1, "unit": "%"},
      {"measurement": "Constipation, Grade 3-4", "setting": "[1]; human, in vivo", "result": 0, "unit": "%"},
      {"measurement": "Decreased appetite, Grade 3-4", "setting": "[1]; human, in vivo", "result": 1, "unit": "%"},
      {"measurement": "Dehydration, Grade 3-4", "setting": "[1]; human, in vivo", "result": 1, "unit": "%"},
      {"measurement": "Depression, Grade 3-4", "setting": "[1]; human, in vivo", "result": 0, "unit": "%"},
      {"measurement": "Diarrhea, Grade 3-4", "setting": "[1]; human, in vivo", "result": 11, "unit": "%"},
      {"measurement": "Dysphonia, Grade 3-4", "setting": "[1]; human, in vivo", "result": 0, "unit": "%"},
      {"measurement": "Dyspnea, Grade 3-4", "setting": "[1]; human, in vivo", "result": 6, "unit": "%"},
      {"measurement": "Fatigue, Grade 3-4", "setting": "[1]; human, in vivo", "result": 17, "unit": "%"},
      {"measurement": "Hyperkalemia, Grade 3-4", "setting": "[1]; human, in vivo", "result": 3, "unit": "%"},
      {"measurement": "Hypertension, Grade 3-4", "setting": "[1]; human, in vivo", "result": 21, "unit": "%"},
      {"measurement": "Hypocalcemia, Grade 3-4", "setting": "[1]; human, in vivo", "result": 0, "unit": "%"},
      {"measurement": "Hypomagnesemia, Grade 3-4", "setting": "[1]; human, in vivo", "result": 0, "unit": "%"},
      {"measurement": "Hyponatremia, Grade 3-4", "setting": "[1]; human, in vivo", "result": 8, "unit": "%"},
      {"measurement": "Hypophosphatemia, Grade 3-4", "setting": "[1]; human, in vivo", "result": 7, "unit": "%"},
      {"measurement": "Hypotension, Grade 3-4", "setting": "[1]; human, in vivo", "result": 1, "unit": "%"},
      {"measurement": "Lung infection, Grade 3-4", "setting": "[1]; human, in vivo", "result": 0, "unit": "%"},
      {"measurement": "Lymphocyte count decreased, Grade 3-4", "setting": "[1]; human, in vivo", "result": 6, "unit": "%"},
      {"measurement": "Nausea, Grade 3-4", "setting": "[1]; human, in vivo", "result": 4, "unit": "%"},
      {"measurement": "Pain in extremity, Grade 3-4", "setting": "[1]; human, in vivo", "result": 0, "unit": "%"},
      {"measurement": "Pain, Grade 3-4", "setting": "[1]; human, in vivo", "result": 0, "unit": "%"},
      {"measurement": "Palmar-plantar erythrodysesthesia, Grade 3-4", "setting": "[1]; human, in vivo", "result": 4, "unit": "%"},
      {"measurement": "Patients discontinued due to an adverse reaction", "setting": "[1]; human, in vivo", "result": 22, "unit": "%"},
      {"measurement": "Patients with any Grade 3-4 Adverse Reaction", "setting": "[1]; human, in vivo", "result": 65, "unit": "%"},
      {"measurement": "Patients with dose held", "setting": "[1]; human, in vivo", "result": 71, "unit": "%"},
      {"measurement": "Patients with dose reduced", "setting": "[1]; human, in vivo", "result": 35, "unit": "%"},
      {"measurement": "Platelet count decreased, Grade 3-4", "setting": "[1]; human, in vivo", "result": 11, "unit": "%"},
      {"measurement": "Proteinuria, Grade 3-4", "setting": "[1]; human, in vivo", "result": 1, "unit": "%"},
      {"measurement": "Renal failure acute, Grade 3-4", "setting": "[1]; human, in vivo", "result": 1, "unit": "%"},
      {"measurement": "Skin ulcer, Grade 3-4", "setting": "[1]; human, in vivo", "result": 0, "unit": "%"},
      {"measurement": "Stomatitis, Grade 3-4", "setting": "[1]; human, in vivo", "result": 6, "unit": "%"},
      {"measurement": "Syncope, Grade 3-4", "setting": "[1]; human, in vivo", "result": 0, "unit": "%"},
      {"measurement": "Vomiting, Grade 3-4", "setting": "[1]; human, in vivo", "result": 3, "unit": "%"},
      {"measurement": "Weight decreased, Grade 3-4", "setting": "[1]; human, in vivo", "result": 0, "unit": "%"},
      {"measurement": "Overall survival events", "setting": "[2]", "result": "(60) %"},
      {"measurement": "Confirmed ORR, partial responses only", "setting": "[2]; BIRC", "result": 9, "unit": "%"},
      {"measurement": "Median PFS", "setting": "[2]; BIRC", "result": 5.3, "unit": "months"},
      {"measurement": "Progression-free survival events", "setting": "[2]; BIRC", "result": "(63) %"}
    ]},
    {"smiles": "CNC(=O)c1cc(Oc2ccc(NC(=O)Nc3ccc(Cl)c(C(F)(F)F)c3)cc2)ccn1", "note": "[sorafenib]", "values": [
      {"measurement": "Objective responses", "setting": "[3]", "result": "very few objective responses"},
      {"measurement": "Overall survival", "setting": "[3]", "result": "improves overall survival"}
    ]},
    {"smiles": "CO[C@H]1C[C@@H]2CC[C@@H](C)[C@@](O)(O2)C(=O)C(=O)N2CCCC[C@H]2C(=O)O[C@H]([C@H](C)C[C@@H]2CC[C@@H](OCCO)[C@H](OC)C2)CC(=O)[C@H](C)/C=C(\\C)[C@@H](O)[C@@H](OC)C(=O)[C@H](C)C[C@H](C)/C=C/C=C/C=C/1C", "note": "[Everolimus, everolimus]", "values": [
      {"measurement": "Adverse reactions leading to study treatment being held", "setting": "[4]; METEOR", "result": 59, "unit": "%"},
      {"measurement": "Adverse reactions leading to study treatment discontinuation", "setting": "[4]; METEOR", "result": 10, "unit": "%"},
      {"measurement": "Palmar-plantar erythrodysesthesia, All Grades", "setting": "[4]; METEOR adverse reaction", "result": 6, "unit": "%"},
      {"measurement": "Palmar-plantar erythrodysesthesia, Grade 3-4", "setting": "[4]; METEOR adverse reaction", "result": "<1", "unit": "%"},
      {"measurement": "Confirmed ORR, partial responses only", "setting": "[5]; ITT", "result": 3, "unit": "%"},
      {"measurement": "Median PFS (95% CI)", "setting": "[5]; first 375 randomized", "result": "3.8 (3.7, 5.4) months"}
    ]},
    {"smiles": "COc1cc2nccc(Oc3ccc(NC(=O)C4(C(=O)Nc5ccc(F)cc5)CC4)cc3)c2cc1OC.O=C(O)C[C@H](O)C(=O)O", "note": "[Cabozantinib (S)-malate salt]", "values": [
      {"measurement": "Solubility", "setting": "[6]", "result": "practically insoluble"}
    ]},
    {"smiles": "CNC(=O)c1cc(Oc2ccc(NC(=O)Nc3ccc(Cl)c(C(F)(F)F)c3)c(F)c2)ccn1", "note": "[Regorafenib]", "values": [
      {"measurement": "Overall survival compared with placebo", "setting": "[7]", "result": "improved overall survival"}
    ]}
  ]
}
